# In paper PMC3407795 (EJNMMI Research, 2012):
# Read-outs that look alike come from different tables or passages of the source.
# Assays:
# [1] = Biodistribution in HEK293-hsst5+ tumor-bearing mice; format: in vivo; settings: mouse, iv, total radioactivity, HEK293-hsst5+ tumor SCID mice, 4 h pi, mean ± SD
# Procedure: (§1) In the flanks of SCID mice, inocula (150 μL) containing a suspension of 1.8 × 10^7 HEK293-hsst2A^+, -hsst3^+ or -hsst5^+ cells in PBS were subcutaneously injected. Tumors of substantial size were grown within 3 weeks, whereupon biodistribution experiments were performed.
# (§2) The in vivo data presented as mean %ID/g ± SD (n ≥ 4) were statistically analyzed with Student’s t test (Prism^TM 2.01, GraphPad Software, San Diego, CA, USA). Analyses were 2-tailed, and a P value < 0.05 was considered statistically significant.
# [2] = Biodistribution in healthy mice; format: in vivo; settings: male, mouse, total radioactivity, healthy Swiss albino mice
# Procedure: In the in vivo receptor blockade animal group, excess Tate (50 nmol) was administered intravenously (iv) together with the radioligand. Animals were sacrificed in groups of four at 4- and 24-h time points post injection (pi). […] Tissue distribution data were calculated as percent injected dose per gram (%ID/g) applying a suitable algorithm.
# as §2
# [3] = Biodistribution in HEK293-hsst2A+ tumor-bearing mice; format: in vivo; settings: mouse, iv, total radioactivity, HEK293-hsst2A+ tumor SCID mice, mean ± SD
# Procedure: as §1, §2
# [4] = Biodistribution in AR4-2J tumor-bearing mice; format: in vivo; settings: female, mouse, iv, total radioactivity, AR4-2J tumor SCID mice, mean ± SD; for tissue uptake at 1 h: 1 h pi
# Procedure: In the flanks of each of female SCID mice, inocula (150 μL) containing a suspension of 0.8 × 10^7 AR4-2J cells in PBS buffer were subcutaneously injected. […] Mice were sacrificed at 4 h pi, and biodistribution was studied as described above.
# as §2
# [5] = Biodistribution in AR4-2J tumor-bearing mice; format: in vivo; settings: female, mouse, iv, total radioactivity, AR4-2J tumor SCID mice, 1 h pi, mean ± SD
# [6] = Metabolism in blood (in vivo stability); set-up: species or system mouse; settings: healthy male Swiss albino mice, blood collected 5 min after iv injection (3 nmol), RP-HPLC radioanalysis
# Procedure: The animals were kept for 5 min in cages with free access to water. They were sacrificed by cardiac puncture under ether anesthesia, and blood was withdrawn with a syringe and immediately placed in a pre-chilled EDTA-containing polypropylene vial on ice. Blood samples were centrifuged at 2,000 × g at 4 °C for 10 min.
# [7] = Biodistribution in HEK293-hsst3+ tumor-bearing mice; format: in vivo; settings: mouse, iv, total radioactivity, HEK293-hsst3+ tumor SCID mice, 4 h pi, mean ± SD
# Procedure: as §1, §2
# [8] = blood, 10 pmol, read-out: Blood uptake
# [9] = heart, 10 pmol, read-out: Heart uptake
# [10] = intestines, 10 pmol total peptide, read-out: Intestines uptake
# [11] = 10 pmol, read-out: Tumor uptake
# [12] = kidneys, 10 pmol, read-out: Kidneys uptake
# [13] = liver, 10 pmol, read-out: Liver uptake
# [14] = muscle, 10 pmol total peptide, read-out: Muscle uptake
# [15] = pancreas, 10 pmol, read-out: Pancreas uptake
# [16] = spleen, 10 pmol total peptide, read-out: Spleen uptake
# [17] = stomach, 10 pmol, read-out: Stomach uptake
# [18] = blood, 10 pmol, 4 h pi, read-out: Blood uptake
# [19] = femur, 10 pmol, 4 h pi, read-out: Femur uptake
# [20] = heart, 10 pmol, 4 h pi, read-out: Heart uptake
# [21] = intestines, 10 pmol total peptide, 4 h pi, read-out: Intestines uptake
# [22] = 10 pmol, 4 h pi, read-out: Tumor uptake
# [23] = kidneys, 10 pmol, 4 h pi, read-out: Kidneys uptake
# [24] = liver, 10 pmol, 4 h pi, read-out: Liver uptake
# [25] = lung, 10 pmol total peptide, 4 h pi, read-out: Lung uptake
# [26] = muscle, 10 pmol total peptide, 4 h pi, read-out: Muscle uptake
# [27] = pancreas, 10 pmol, 4 h pi, read-out: Pancreas uptake
# [28] = spleen, 10 pmol total peptide, 4 h pi, read-out: Spleen uptake
# [29] = stomach, 10 pmol, 4 h pi, read-out: Stomach uptake
# [30] = lung, 10 pmol total peptide, read-out: Lung uptake
# [31] = femur, 10 pmol, read-out: Femur uptake
compound,measurement,setting,value
"C[C@H](NC(=O)CN1CCN(CC(=O)O)CCN(CC(=O)O)CCN(CC(=O)O)CC1)C(=O)NCC(=O)N[C@H]1CSSC[C@@H](C(=O)O)NC(=O)[C@H](CO)NC(=O)[C@H]([C@@H](C)O)NC(=O)[C@H](Cc2ccccc2)NC(=O)[C@H]([C@@H](C)O)NC(=O)[C@H](CCCCN)NC(=O)[C@@H](Cc2c[nH]c3ccccc23)NC(=O)[C@H](Cc2ccccc2)NC(=O)[C@H](Cc2ccccc2)NC(=O)[C@H](CC(N)=O)NC(=O)[C@H](CCCCN)NC1=O [[^111In]AT2S, metal not drawn]",tissue uptake at 4 h,[1]; [8],0.1 ± 0.04 %ID/g
same,tissue uptake at 4 h,[1]; [9],0.15 ± 0.02 %ID/g
same,tissue uptake at 4 h,[1]; [10],1.54 ± 0.09 %ID/g
same,tissue uptake at 4 h,[1]; [11],0.41 ± 0.12 %ID/g
same,tissue uptake at 4 h,[1]; [12],24.1 ± 1.21 %ID/g
same,tissue uptake at 4 h,[1]; [13],1.1 ± 0.08 %ID/g
same,tissue uptake at 4 h,"[1]; lung, 10 pmol, read-out: Lung uptake",0.56 ± 0.28 %ID/g
same,tissue uptake at 4 h,[1]; [14],0.06 ± 0.01 %ID/g
same,tissue uptake at 4 h,[1]; [15],2.79 ± 0.4 %ID/g
same,tissue uptake at 4 h,[1]; [16],0.78 ± 0.07 %ID/g
same,tissue uptake at 4 h,[1]; [17],3.06 ± 0.73 %ID/g
same,tissue uptake at 4 h,"[2]; kidney, 10 pmol total peptide, 4 h pi, iv 10 pmol, read-out: Kidney uptake",22.9 %ID/g
same,tissue uptake at 24 h,"[2]; kidney, 10 pmol total peptide, 24 h pi, iv 10 pmol",7.6 %ID/g
same,tissue uptake at 4 h,"[2]; pancreas, 10 pmol total peptide, 4 h pi, iv 10 pmol, read-out: Pancreas uptake",2.9 %ID/g
same,tissue uptake at 4 h,"[2]; pancreas, iv, 4 h pi + excess Tate (50 nmol), read-out: Pancreas uptake, sst2 blockade",0.17 %ID/g
same,tissue uptake at 4 h,[3]; [18],0.23 ± 0.07 %ID/g
same,tissue uptake at 4 h,"[3]; blood, 4 h pi + co-injection of 35 nmol DP2, read-out: Blood uptake, blocked",0.66 ± 0.35 %ID/g
same,tissue uptake at 4 h,[3]; [19],0.24 ± 0.09 %ID/g
same,tissue uptake at 4 h,"[3]; femur, 4 h pi + co-injection of 35 nmol DP2, read-out: Femur uptake, blocked",0.21 ± 0.11 %ID/g
same,tissue uptake at 4 h,[3]; [20],0.22 ± 0.05 %ID/g
same,tissue uptake at 4 h,"[3]; heart, 4 h pi + co-injection of 35 nmol DP2, read-out: Heart uptake, blocked",0.38 ± 0.1 %ID/g
same,tissue uptake at 4 h,[3]; [21],2 ± 0.48 %ID/g
same,tissue uptake at 4 h,"[3]; intestines, 4 h pi + co-injection of 35 nmol DP2, read-out: Intestines uptake, blocked",1.74 ± 1.02 %ID/g
same,tissue uptake at 4 h,[3]; [22],1.49 ± 0.2 %ID/g
same,tissue uptake at 4 h,"[3]; 4 h pi + co-injection of 35 nmol DP2, read-out: Tumor uptake, blocked",0.27 ± 0.2 %ID/g
same,tissue uptake at 4 h,[3]; [23],23.2 ± 7.04 %ID/g
same,tissue uptake at 4 h,"[3]; kidneys, 4 h pi + co-injection of 35 nmol DP2, read-out: Kidneys uptake, blocked",25.5 ± 3.7 %ID/g
same,tissue uptake at 4 h,[3]; [24],1.31 ± 0.36 %ID/g
same,tissue uptake at 4 h,"[3]; liver, 4 h pi + co-injection of 35 nmol DP2, read-out: Liver uptake, blocked",0.963 ± 0.67 %ID/g
same,tissue uptake at 4 h,[3]; [25],1.37 ± 0.55 %ID/g
same,tissue uptake at 4 h,"[3]; lung, 4 h pi + co-injection of 35 nmol DP2, read-out: Lung uptake, blocked",0.47 ± 0.08 %ID/g
same,tissue uptake at 4 h,[3]; [26],0.07 ± 0.02 %ID/g
same,tissue uptake at 4 h,"[3]; muscle, 4 h pi + co-injection of 35 nmol DP2, read-out: Muscle uptake, blocked",0.07 ± 0.03 %ID/g
same,tissue uptake at 4 h,[3]; [27],5.73 ± 1.28 %ID/g
same,tissue uptake at 4 h,"[3]; pancreas, 4 h pi + co-injection of 35 nmol DP2, read-out: Pancreas uptake, blocked",0.16 ± 0.1 %ID/g
same,tissue uptake at 4 h,[3]; [28],0.46 ± 0.11 %ID/g
same,tissue uptake at 4 h,"[3]; spleen, 4 h pi + co-injection of 35 nmol DP2, read-out: Spleen uptake, blocked",0.5 ± 0.36 %ID/g
same,tissue uptake at 4 h,[3]; [29],1.96 ± 0.53 %ID/g
same,tissue uptake at 4 h,"[3]; stomach, 4 h pi + co-injection of 35 nmol DP2, read-out: Stomach uptake, blocked",1.29 ± 0.36 %ID/g
same,tissue uptake at 4 h,[4]; [18],0.19 ± 0.02 %ID/g
same,tissue uptake at 4 h,"[4]; blood, 4 h pi + co-injection of 50 nmol Tate, read-out: Blood uptake, blocked",0.26 ± 0.03 %ID/g
same,tissue uptake at 4 h,[4]; [19],0.4 ± 0.24 %ID/g
same,tissue uptake at 4 h,"[4]; femur, 4 h pi + co-injection of 50 nmol Tate, read-out: Femur uptake, blocked",0.19 ± 0.02 %ID/g
same,tissue uptake at 1 h,[4]; [9],0.67 ± 0.12 %ID/g
same,tissue uptake at 4 h,[4]; [20],0.18 ± 0.05 %ID/g
same,tissue uptake at 4 h,"[4]; heart, 4 h pi + co-injection of 50 nmol Tate, read-out: Heart uptake, blocked",0.17 ± 0.04 %ID/g
same,tissue uptake at 1 h,[4]; [10],1.98 ± 0.29 %ID/g
same,tissue uptake at 4 h,[4]; [21],1.92 ± 0.25 %ID/g
same,tissue uptake at 4 h,"[4]; intestines, 4 h pi + co-injection of 50 nmol Tate, read-out: Intestines uptake, blocked",0.77 ± 0.58 %ID/g
same,tissue uptake at 4 h,[4]; [22],1.82 ± 0.36 %ID/g
same,tissue uptake at 4 h,"[4]; 4 h pi + co-injection of 50 nmol Tate, read-out: Tumor uptake, blocked",0.21 ± 0.17 %ID/g
same,tissue uptake at 1 h,[4]; [12],23.8 ± 4.28 %ID/g
same,tissue uptake at 4 h,[4]; [23],21.1 ± 4.43 %ID/g
same,tissue uptake at 4 h,"[4]; kidneys, 4 h pi + co-injection of 50 nmol Tate, read-out: Kidneys uptake, blocked",24.4 ± 9.15 %ID/g
same,tissue uptake at 1 h,[4]; [13],1.27 ± 0.09 %ID/g
same,tissue uptake at 4 h,[4]; [24],0.95 ± 0.21 %ID/g
same,tissue uptake at 4 h,"[4]; liver, 4 h pi + co-injection of 50 nmol Tate, read-out: Liver uptake, blocked",1.02 ± 0.11 %ID/g
same,tissue uptake at 1 h,[4]; [30],2.05 ± 0.52 %ID/g
same,tissue uptake at 4 h,[4]; [25],1.43 ± 1.36 %ID/g
same,tissue uptake at 4 h,"[4]; lung, 4 h pi + co-injection of 50 nmol Tate, read-out: Lung uptake, blocked",3.3 ± 4.93 %ID/g
same,tissue uptake at 1 h,[4]; [14],0.22 ± 0.02 %ID/g
same,tissue uptake at 4 h,[4]; [26],0.06 ± 0.01 %ID/g
same,tissue uptake at 4 h,"[4]; muscle, 4 h pi + co-injection of 50 nmol Tate, read-out: Muscle uptake, blocked",0.07 ± 0.01 %ID/g
same,tissue uptake at 1 h,[4]; [15],7.35 ± 0.74 %ID/g
same,tissue uptake at 4 h,[4]; [27],5.13 ± 0.75 %ID/g
same,tissue uptake at 4 h,"[4]; pancreas, 4 h pi + co-injection of 50 nmol Tate, read-out: Pancreas uptake, blocked",0.15 ± 0.05 %ID/g
same,tissue uptake at 4 h,[4]; [28],1.1 ± 0.63 %ID/g
same,tissue uptake at 4 h,"[4]; spleen, 4 h pi + co-injection of 50 nmol Tate, read-out: Spleen uptake, blocked",0.61 ± 0.18 %ID/g
same,tissue uptake at 1 h,[4]; [17],3.23 ± 0.77 %ID/g
same,tissue uptake at 4 h,[4]; [29],1.81 ± 0.47 %ID/g
same,tissue uptake at 4 h,"[4]; stomach, 4 h pi + co-injection of 50 nmol Tate, read-out: Stomach uptake, blocked",0.18 ± 0.07 %ID/g
same,tissue uptake at 1 h,[5]; [8],1.34 ± 0.21 %ID/g
same,tissue uptake at 1 h,[5]; [31],0.49 ± 0.12 %ID/g
same,tissue uptake at 1 h,[5]; [11],3.05 ± 0.51 %ID/g
same,tissue uptake at 1 h,[5]; [16],0.84 ± 0.21 %ID/g
same,intact radiopeptide detected in blood,[6],6.5%
same,tissue uptake at 4 h,[7]; [8],0.19 ± 0.03 %ID/g
same,tissue uptake at 4 h,[7]; [31],0.23 ± 0.03 %ID/g
same,tissue uptake at 4 h,[7]; [9],0.15 ± 0.04 %ID/g
same,tissue uptake at 4 h,[7]; [10],2.39 ± 0.43 %ID/g
same,tissue uptake at 4 h,[7]; [11],1.24 ± 0.27 %ID/g
same,tissue uptake at 4 h,[7]; [12],23.4 ± 4.69 %ID/g
same,tissue uptake at 4 h,[7]; [13],1.02 ± 0.19 %ID/g
same,tissue uptake at 4 h,[7]; [30],0.68 ± 0.29 %ID/g
same,tissue uptake at 4 h,[7]; [14],0.06 ± 0.01 %ID/g
same,tissue uptake at 4 h,[7]; [15],3.33 ± 0.4 %ID/g
same,tissue uptake at 4 h,[7]; [16],0.82 ± 0.11 %ID/g
same,tissue uptake at 4 h,[7]; [17],3.41 ± 0.97 %ID/g
